From US20210400967A1, “COMPOSITIONS COMPRISING PYRIDINE CARBOXYLATE HERBICIDES WITH GLYPHOSATE OR GLUFOSINATE” (Corteva Agriscience LLC, priority 2018, published 2021)

Columns and labels:
Type in all cases: in vivo
[1] = system: Polygonum convolvulus (wild buckwheat); experiment: Greenhouse postemergence herbicidal effect, wild buckwheat (POLCO); settings: 20-22 d
Description: (§1) Greenhouse Trial Methodology—Evaluation of Postemergence Herbicidal Effect
(§2) Seeds of the desired test plant species were planted in a 90:10% v/v (volume/volume) mixture of PRO-MIX® BX (Premier Tech Horticulture, Quakertown, Pa., USA) and PROFILE® GREENS GRADE™ (Profile Products LLC, Buffalo Grove, Ill., USA) planting mixture, which typically has a pH of 5.2 to 6.2 and an organic matter content of at least 50 percent, in plastic pots with a surface area of 103.2 square centimeters (cm^2). In some aspects, to ensure good germination and healthy plants, a fungicide treatment and/or other chemical or physical treatment was applied. The plants were grown for 7-36 days (d) in a greenhouse with an approximate 14-hour (h) photo-period which was maintained at about 23° C. during the day and 22° C. during the night. Nutrients and water were added on a regular basis and supplemental lighting was provided with overhead metal halide 1000-Watt lamps as necessary. The plants were employed for testing when they reached the second or third true leaf stage.
(§3) Emulsifiable concentrates of each of each pyridine carboxylate herbicide (Compound A or Compound B) were prepared at 100 grams acid equivalent per liter (g ae/L). The emulsifiable concentrates also included a safener, cloquintocet-mexyl, at 120 grams active ingredient per liter (g ai/L). An aliquot of each emulsifiable concentrate was placed in a 25 mL glass vial and diluted with an aqueous mixture of 1.25% (v/v) ACTIROB® B esterified rapeseed oil (Bayer Crop Science, Research Triangle Park, N.C., USA) or MSO® Concentrate with LECI-TECH® methylated soybean oil (Loveland Products, Loveland, Colo., USA) to obtain concentrated stock solutions at the highest application rate for each herbicide, based upon a 12 milliliter (mL) application volume at a rate of 187 liters per hectare (L/ha). The concentrated stock solutions were further diluted with an aqueous mixture of 1.25% v/v ACTIROB® B or MSO® Concentrate with LECI-TECH® to obtain stock solutions at reduced application rates for each herbicide. Spray solutions of the herbicide combinations (Compound A or Compound B plus glyphosate or glufosinate) were prepared by adding weighed amounts or aliquots of the glyphosate or glufosinate to the stock solutions of Compound A or Compound B to form 12-mL spray solutions in two-way combinations.
(§4) The spray solutions were applied to the plant material with an overhead Mandel track sprayer equipped with 8002E nozzles calibrated to deliver 187 L/ha over an application area of 0.503 square meters (m^2) at a spray height of 18 inches (43 centimeters (cm)) above the average plant canopy. Control plants were sprayed in the same manner with the solvent blank. All pyridine carboxylate herbicide (component a) application rates are given as “g ae/ha” and all glyphosate or glufosinate (component b) application rates are given as “g ai/ha.”
(§5) The treated plants and control plants were placed in a greenhouse as described above and watered by sub-irrigation to prevent wash-off of the test compounds. After 20-22 d, the condition of the test plants as compared with that of the control plants was determined visually and scored on a scale of 0 to 100 percent where 0 corresponds to no injury and 100 corresponds to complete kill.

Kochia scoparia (kochia) = experiment: Greenhouse postemergence herbicidal effect, kochia (KCHSC); settings: 20-22 d
Description: as §1, §2, §3, §4, §5

[2] = system: Chenopodium album L. (common lambsquarters); experiment: Greenhouse postemergence herbicidal effect, common lambsquarters (CHEAL); settings: 20-22 d
Description: as §1, §2, §3, §4, §5

[3] = system: Cirsium arvense (Canadian thistle); experiment: Greenhouse postemergence herbicidal effect, Canadian thistle (CIRAR); settings: 20-22 d
Description: as §1, §2, §3, §4, §5

[4] = system: Brassica napus (spring rape); experiment: Greenhouse postemergence herbicidal effect, spring rape (BRSNN); settings: 20-22 d
Description: as §1, §2, §3, §4, §5

[5] = system: Setaria faberi (giant foxtail); experiment: Greenhouse postemergence herbicidal effect, giant foxtail (SETFA); settings: 20-22 d
Description: as §1, §2, §3, §4, §5

[6] = system: Abutilon theophrasti (velvetleaf); experiment: Greenhouse postemergence herbicidal effect, velvetleaf (ABUTH); settings: Example 4, 20-22 d
Description: as §1, §2
Emulsifiable concentrates of each of each pyridine carboxylate herbicide (Compound A or Compound B) were prepared at 100 grams acid equivalent per liter (g ae/L). The emulsifiable concentrates also included a safener, cloquintocet-mexyl, at 120 grams active ingredient per liter (g ai/L). […]
as §5

[7] = system: Viola tricolor (wild pansy); experiment: Greenhouse postemergence herbicidal effect, wild pansy (VIOTR); settings: Example 4, 20-22 d
Description: as §1, §2, §3, §4, §5

[8] = system: Brassica napus (winter rape); experiment: Greenhouse postemergence herbicidal effect, winter rape (BRSNW); settings: 20-22 d
Description: as §1, §2, §3, §4, §5

[9] = system: Sinapis arvensis (wild mustard); experiment: Greenhouse postemergence herbicidal effect, wild mustard (SINAR); settings: 20-22 d
Description: as §1, §2, §3, §4, §5

[10] = system: Salsola kali (Russian thistle); experiment: Greenhouse postemergence herbicidal effect, Russian thistle (SASKR); settings: 20-22 d
Description: as §1, §2, §3, §4, §5

[11] = system: Amaranthus retroflexus (pigweed); experiment: Greenhouse postemergence herbicidal effect, pigweed (AMARE); settings: 20-22 d
Description: as §1, §2, §3, §4, §5

[12] = system: Matricaria chamomilla (wild chamomile); experiment: Greenhouse postemergence herbicidal effect, wild chamomile (MATCH); settings: 20-22 d
Description: as §1, §2, §3, §4, §5

[13] = system: Triticum aestivum (spring wheat); experiment: Greenhouse postemergence phytotoxicity on crop, spring wheat (TRZAS); settings: 20-22 d
Description: as §1, §2, §3, §4, §5

[14] = system: Hordeum vulgare (spring barley); experiment: Greenhouse postemergence phytotoxicity on crop, spring barley (HORVS); settings: 20-22 d
Description: as §1, §2, §3, §4, §5

[15] = Example 3, Compound B 7.5 g ae/ha alone
[16] = Example 3, Compound B 10 g ae/ha alone
[17] = Example 4, Compound B 7.5 g ae/ha alone
[18] = Example 4, Compound B 10 g ae/ha alone
[19] = Example 1, Glyphosate 210 g ai/ha alone
[20] = Example 2, Glyphosate 420 g ai/ha alone
[21] = Example 3, Glyphosate 210 g ai/ha alone

`C#CCOC(=O)c1nc(-c2ccc3cc[nH]c3c2F)c(F)c(N)c1Cl` [Compound B, propargyl 4-amino-3-chloro-5-fluoro-6-(7-fluoro-1H-indol-6-yl)pyridine-2-carboxylate] was tested, and the “% visual injury, Obs” value [1, 15] was 73%, the “% visual injury, Obs” value [1, 16] was 80% and the “% visual injury, Obs” value [1, 17] was 73%. For the same compound, the “% visual injury, Obs” value [1, 18] was 80%, the “% visual injury, Obs” value (Kochia scoparia (kochia); [15]) was 68% and the “% visual injury, Obs” value (Kochia scoparia (kochia); [16]) was 80%. The “% visual injury, Obs” value (Kochia scoparia (kochia); [17]) was 68%, the “% visual injury, Obs” value (Kochia scoparia (kochia); [18]) was 80% and the “% visual injury, Obs” value [2, 15] was 85%. The “% visual injury, Obs” value [2, 16] was 90%, the “% visual injury, Obs” value [2, 17] was 85% and the “% visual injury, Obs” value [2, 18] was 90%. The “% visual injury, Obs” value [3, 15] was 45%, the “% visual injury, Obs” value [3, 16] was 45% and the “% visual injury, Obs” value [3, 17] was 45%. The “% visual injury, Obs” value [3, 18] was 45%, the “% visual injury, Obs” value [4, 15] was 68% and the “% visual injury, Obs” value [4, 16] was 85%. The “% visual injury, Obs” value [4, 17] was 68%, the “% visual injury, Obs” value [4, 18] was 85% and the “% visual injury, Obs” value [5, 15] was 70%. For the same compound, the “% visual injury, Obs” value [5, 16] was 55%, the “% visual injury, Obs” value [5, 17] was 70% and the “% visual injury, Obs” value [5, 18] was 55%. The “% visual injury, Obs” value ([6]; Compound B 7.5 g ae/ha alone) was 68%, the “% visual injury, Obs” value ([6]; Compound B 10 g ae/ha alone) was 68% and the “% visual injury, Obs” value ([7]; Compound B 7.5 g ae/ha alone) was 10%. For the same compound, the “% visual injury, Obs” value ([7]; Compound B 10 g ae/ha alone) was 40%.

In the case of `O=C(O)CNCP(=O)(O)O` [Glyphosate, N-(phosphonomethyl)glycine], the “% visual injury” value [8, 19] is reported as 68%, the “% visual injury, Obs” value [8, 20] is reported as 35% and the “% visual injury” value [1, 19] is reported as 65%. For the same compound, the “% visual injury, Obs” value [1, 20] was 38%, the “% visual injury, Obs” value [1, 21] was 20% and the “% visual injury” value [9, 19] was 50%. The “% visual injury, Obs” value [9, 20] was 30%, the “% visual injury” value [10, 19] was 10% and the “% visual injury, Obs” value [10, 20] was 53%. The “% visual injury” value (Kochia scoparia (kochia); [19]) was 0%, the “% visual injury, Obs” value (Kochia scoparia (kochia); [20]) was 38% and the “% visual injury, Obs” value (Kochia scoparia (kochia); [21]) was 3%. For the same compound, the “% visual injury” value [2, 19] was 53%, the “% visual injury, Obs” value [2, 20] was 75% and the “% visual injury, Obs” value [2, 21] was 8%. For the same compound, the “% visual injury” value [11, 19] was 100%, the “% visual injury, Obs” value [11, 20] was 100% and the “% visual injury” value [12, 19] was 60%. For the same compound, the “% visual injury, Obs” value [12, 20] was 75%, the “% visual injury” value [3, 19] was 38% and the “% visual injury, Obs” value [3, 20] was 83%. The “% visual injury, Obs” value [3, 21] was 40%, the “% visual injury” value [13, 19] was 90% and the “% visual injury, Obs” value [13, 20] was 90%. For the same compound, the “% visual injury” value [14, 19] was 83%, the “% visual injury, Obs” value [14, 20] was 80% and the “% visual injury, Obs” value [4, 21] was 0%. The “% visual injury, Obs” value [5, 21] was 30%.
